# PubChem BioAssay (NCI)
# Where “and” joins values, the source holds several entries; their conditions need not be identical. Identical values can stand only once.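 Five concentrations, 48 hours, 96-well plates. At the GI50, growth is halved. TGI denotes the concentration required for complete inhibition of growth.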
# Assays:
# Assay in all cases: DTP human tumour cell line panel, 48 h
# EKVX NSCLC = tested on: EKVX NSCLC
# SNB-75 CNS = tested on: SNB-75 CNS
# SNB-19 CNS = tested on: SNB-19 CNS
# HOP-62 NSCLC = tested on: HOP-62 NSCLC
# OVCAR-5 ovarian = tested on: OVCAR-5 ovarian
# SF-539 CNS = tested on: SF-539 CNS
# SR leukemia = tested on: SR leukemia
# 786-0 renal = tested on: 786-0 renal
# HCC-2998 colon = tested on: HCC-2998 colon
# MDA-MB-435 = tested on: MDA-MB-435
smiles,measurement,setting,value
CC(=O)N/C(=C\c1ccccc1/C=C(\NC(C)=O)c1nc2cc(C)c(C)cc2[nH]1)c1nc2cc(C)c(C)cc2[nH]1,TGI,EKVX NSCLC,32.5 µM
same,TGI,SNB-75 CNS,> 100 µM
same,TGI,SNB-19 CNS,> 100 µM
same,TGI,HOP-62 NSCLC,68.6 µM
same,TGI,OVCAR-5 ovarian,94.6 µM
same,TGI,SF-539 CNS,44.3 µM
same,TGI,SR leukemia,> 100 µM
same,TGI,786-0 renal,46.6 µM
COCOCCC#CCO,TGI,EKVX NSCLC,> 100 µM
same,TGI,SNB-75 CNS,> 100 µM
same,TGI,SNB-19 CNS,> 100 µM
same,TGI,HCC-2998 colon,> 100 µM
same,TGI,OVCAR-5 ovarian,> 100 µM
same,TGI,SF-539 CNS,> 100 µM
same,TGI,SR leukemia,> 100 µM
same,TGI,786-0 renal,> 100 µM
N#CC(I)CS(=O)(=O)c1ccccc1 (stereo not drawn),GI50,EKVX NSCLC,19.4 µM
same,TGI,EKVX NSCLC,44.2 µM
same,GI50,SNB-75 CNS,15.6 µM
same,TGI,SNB-75 CNS,36 µM
same,GI50,MDA-MB-435,17.6 µM
same,TGI,MDA-MB-435,34.5 µM
same,GI50,SNB-19 CNS,> 100 µM
same,TGI,SNB-19 CNS,> 100 µM
same,GI50,HOP-62 NSCLC,19.3 µM
same,TGI,HOP-62 NSCLC,38.4 µM
same,GI50,HCC-2998 colon,17.7 µM
same,TGI,HCC-2998 colon,31.8 µM
same,GI50,OVCAR-5 ovarian,18.9 µM
same,TGI,OVCAR-5 ovarian,33.6 µM
same,GI50,SF-539 CNS,18.2 µM
same,TGI,SF-539 CNS,32.5 µM
same,GI50,786-0 renal,19.1 µM
same,TGI,786-0 renal,33.2 µM
CN(C)CCNC(=O)Cc1ccccc1Nc1c(Cl)cccc1Cl,TGI,EKVX NSCLC,43 µM
same,TGI,SNB-75 CNS,27.4 µM
same,TGI,SNB-19 CNS,31.9 µM
same,TGI,HOP-62 NSCLC,28.5 µM
same,TGI,HCC-2998 colon,24.7 µM
same,TGI,OVCAR-5 ovarian,24.2 µM
same,TGI,SF-539 CNS,31.5 µM
same,TGI,SR leukemia,37.7 µM
same,TGI,786-0 renal,25.7 µM
C[N+](C)(C)CC(=O)N/N=C(/Cc1cc(=O)oc2cc(O)ccc12)C(=O)Nc1ccc(Cl)cc1,TGI,EKVX NSCLC,> 100 µM
same,TGI,SNB-19 CNS,> 100 µM
same,TGI,HOP-62 NSCLC,> 100 µM
same,TGI,HCC-2998 colon,> 100 µM
same,TGI,OVCAR-5 ovarian,> 100 µM
same,TGI,SF-539 CNS,> 100 µM
same,TGI,SR leukemia,> 100 µM
same,TGI,786-0 renal,> 100 µM
CC1=C(C(=O)Nc2ccccc2)C(c2ccc(Cl)c(Cl)c2)C(C(=O)Nc2ccccc2)=C(C)N1,TGI,EKVX NSCLC,30.9 µM
same,TGI,SNB-75 CNS,35 µM
same,TGI,SNB-19 CNS,32.6 µM
same,TGI,HOP-62 NSCLC,28.6 µM
same,TGI,OVCAR-5 ovarian,32.4 µM
same,TGI,SF-539 CNS,32.3 µM
same,TGI,786-0 renal,25.7 µM
CCC(C)(C)n1c(C)nc2c1C(=O)c1ccccc1C2=O,TGI,EKVX NSCLC,> 100 µM
same,TGI,SNB-75 CNS,> 100 µM
same,TGI,SNB-19 CNS,> 100 µM
same,TGI,HOP-62 NSCLC,> 100 µM
same,TGI,HCC-2998 colon,> 100 µM
same,TGI,SF-539 CNS,> 100 µM
same,TGI,SR leukemia,42.7 µM
same,TGI,786-0 renal,> 100 µM
CCCCCCCC(=O)OCC1OC(n2cc(F)c(=O)[nH]c2=O)C(N)C(OC(=O)CCCCCCC)C1O (stereo not drawn),TGI,EKVX NSCLC,34 µM
same,TGI,SNB-75 CNS,28.4 µM
same,TGI,SNB-19 CNS,32 µM
same,TGI,HOP-62 NSCLC,32.5 µM
same,TGI,HCC-2998 colon,35.3 µM
same,TGI,SF-539 CNS,36.1 µM
same,TGI,786-0 renal,33.5 µM
COc1cc(/C=C2\CCCCC3=C2N=C2SC(C)=CN2C3c2cc(OC)c(OC)c(OC)c2)cc(OC)c1OC (stereo not drawn),GI50,SNB-75 CNS,1.9 µM
same,TGI,SNB-75 CNS,9.09 µM
same,GI50,MDA-MB-435,24.3 µM
same,TGI,MDA-MB-435,> 100 µM
same,GI50,SNB-19 CNS,> 100 µM
same,TGI,SNB-19 CNS,> 100 µM
same,GI50,HOP-62 NSCLC,4.7 µM
same,TGI,HOP-62 NSCLC,> 100 µM
same,GI50,HCC-2998 colon,74 µM
same,TGI,HCC-2998 colon,> 100 µM
same,GI50,OVCAR-5 ovarian,> 100 µM
same,TGI,OVCAR-5 ovarian,> 100 µM
same,GI50,SF-539 CNS,> 100 µM
same,TGI,SF-539 CNS,> 100 µM
same,GI50,786-0 renal,40.5 µM
same,TGI,786-0 renal,> 100 µM
Cc1nc2sccn2c1-c1nc2sccn2c1/C=C1/C(=O)Nc2ccccc21,GI50,EKVX NSCLC,7.45 µM
same,TGI,EKVX NSCLC,55.3 µM
same,GI50,SNB-75 CNS,2.38 µM
same,TGI,SNB-75 CNS,16 µM
same,GI50,MDA-MB-435,0.53 µM
same,TGI,MDA-MB-435,2.52 µM
same,GI50,SNB-19 CNS,3.52 µM
same,TGI,SNB-19 CNS,23.9 µM
same,GI50,HOP-62 NSCLC,3.61 µM
same,TGI,HOP-62 NSCLC,> 100 µM
same,GI50,HCC-2998 colon,8.3 µM
same,TGI,HCC-2998 colon,29.8 µM
same,GI50,OVCAR-5 ovarian,12.9 µM
same,TGI,OVCAR-5 ovarian,> 100 µM
same,GI50,SF-539 CNS,3.72 µM
same,TGI,SF-539 CNS,15.6 µM
same,GI50,786-0 renal,1.79 µM
same,TGI,786-0 renal,24.7 µM
C=C(C)C(C1C=C(CCC(C=O)=C(C)C)C(=O)O1)C1(OC)C=C(C)C(=O)O1 (stereo not drawn),GI50,EKVX NSCLC,> 100 µM
same,TGI,EKVX NSCLC,> 100 µM
same,GI50,SNB-75 CNS,> 100 µM
same,TGI,SNB-75 CNS,> 100 µM
same,GI50,MDA-MB-435,> 100 µM
same,TGI,MDA-MB-435,> 100 µM
same,GI50,SNB-19 CNS,> 100 µM
same,TGI,SNB-19 CNS,> 100 µM
same,GI50,HOP-62 NSCLC,> 100 µM
same,TGI,HOP-62 NSCLC,> 100 µM
same,GI50,HCC-2998 colon,> 100 µM
same,TGI,HCC-2998 colon,> 100 µM
same,GI50,OVCAR-5 ovarian,> 100 µM
same,TGI,OVCAR-5 ovarian,> 100 µM
same,GI50,SF-539 CNS,> 100 µM
same,TGI,SF-539 CNS,> 100 µM
same,GI50,786-0 renal,> 100 µM
same,TGI,786-0 renal,> 100 µM
CN1Nc2ccccc2CC1=O,TGI,EKVX NSCLC,> 100 µM
same,TGI,SNB-75 CNS,> 100 µM
same,TGI,SNB-19 CNS,> 100 µM
same,TGI,HOP-62 NSCLC,> 100 µM
same,TGI,HCC-2998 colon,> 100 µM
same,TGI,OVCAR-5 ovarian,> 100 µM
same,TGI,SF-539 CNS,> 100 µM
same,TGI,786-0 renal,> 100 µM
CCCN(CCC)c1c([N+](=O)[O-])cc(C(=O)N(CC)CC)cc1[N+](=O)[O-],TGI,EKVX NSCLC,61.3 µM
same,TGI,SNB-75 CNS,82.7 µM
same,TGI,SNB-19 CNS,> 100 µM
same,TGI,HOP-62 NSCLC,> 100 µM
same,TGI,HCC-2998 colon,> 100 µM
same,TGI,OVCAR-5 ovarian,94.3 µM
same,TGI,SF-539 CNS,58.3 µM
same,TGI,SR leukemia,55.2 µM
same,TGI,786-0 renal,> 100 µM
Oc1oc(C(=C2N=c3ccccc3=N2)c2ccc(Cl)cc2)c(O)c1-c1ccc(Cl)cc1,TGI,EKVX NSCLC,7.41 µM
same,TGI,SNB-75 CNS,13 µM
same,TGI,SNB-19 CNS,> 100 µM
same,TGI,HOP-62 NSCLC,4.51 µM
same,TGI,HCC-2998 colon,20.8 µM
same,TGI,OVCAR-5 ovarian,6.89 µM
same,TGI,SF-539 CNS,9.91 µM
same,TGI,SR leukemia,12.6 µM
same,TGI,786-0 renal,> 100 µM
CCOC(=O)Cc1csc(Nc2ccccc2[N+](=O)[O-])n1,TGI,EKVX NSCLC,> 100 µM
same,TGI,SNB-75 CNS,> 100 µM
same,TGI,SNB-19 CNS,> 100 µM
same,TGI,HOP-62 NSCLC,> 100 µM
same,TGI,HCC-2998 colon,> 100 µM
same,TGI,OVCAR-5 ovarian,> 100 µM
same,TGI,SF-539 CNS,> 100 µM
same,TGI,SR leukemia,61.3 µM
same,TGI,786-0 renal,> 100 µM
C/C(=N\NC(N)=O)c1sc(-c2nc(C)c(/C(C)=N/NC(N)=O)s2)nc1C,TGI,EKVX NSCLC,> 100 µM
same,TGI,SNB-75 CNS,> 100 µM
same,TGI,SNB-19 CNS,> 100 µM
same,TGI,HOP-62 NSCLC,> 100 µM
same,TGI,HCC-2998 colon,> 100 µM
same,TGI,OVCAR-5 ovarian,> 100 µM
same,TGI,SF-539 CNS,> 100 µM
same,TGI,SR leukemia,43.5 µM
same,TGI,786-0 renal,> 100 µM
O=C1C/C(Br)=C\c2ccccc2-c2ccccc21,TGI,EKVX NSCLC,21.8 µM
same,TGI,SNB-75 CNS,7.65 µM
same,TGI,SNB-19 CNS,19.5 µM
same,TGI,HOP-62 NSCLC,9.67 µM
same,TGI,HCC-2998 colon,19.3 µM
same,TGI,OVCAR-5 ovarian,6.06 µM
same,TGI,SF-539 CNS,4.85 µM
same,TGI,SR leukemia,2.73 µM
same,TGI,786-0 renal,2.91 µM
C=C(C)[C@@H]1CC[C@]2(CN)CC[C@]3(C)[C@H](CC[C@@H]4[C@@]5(C)CCCNC(C)(C)[C@@H]5CC[C@]43C)[C@@H]12,GI50,EKVX NSCLC,1.77 µM
same,TGI,EKVX NSCLC,3.39 µM
same,GI50,SNB-75 CNS,1.63 µM
same,TGI,SNB-75 CNS,3.11 µM
same,GI50,MDA-MB-435,1.6 µM
same,TGI,MDA-MB-435,2.98 µM
same,GI50,HOP-62 NSCLC,1.93 µM
same,TGI,HOP-62 NSCLC,3.73 µM
same,GI50,OVCAR-5 ovarian,1.59 µM
same,TGI,OVCAR-5 ovarian,3.11 µM
same,GI50,SF-539 CNS,1.62 µM
same,TGI,SF-539 CNS,3.09 µM
same,GI50,786-0 renal,1.74 µM
same,TGI,786-0 renal,3.57 µM
COc1ccc2c(=O)oc3c(OC)cc(CCN(C)C)c4c(=O)oc1c2c34,GI50,EKVX NSCLC,17.8 µM and 7.55 µM
same,TGI,EKVX NSCLC,34.9 µM and 15.9 µM
same,GI50,SNB-75 CNS,16.4 µM and 8.17 µM
same,TGI,SNB-75 CNS,31.5 µM and 17.2 µM
same,TGI,MDA-MB-435,16.1 µM
same,TGI,SNB-19 CNS,29.2 µM and 21.4 µM
same,TGI,HOP-62 NSCLC,28.7 µM
same,TGI,HCC-2998 colon,25.2 µM
same,TGI,OVCAR-5 ovarian,31.9 µM and 22.3 µM
same,GI50,SF-539 CNS,22.8 µM and 6.89 µM
same,TGI,SF-539 CNS,37.5 µM and 14 µM
same,GI50,786-0 renal,3.66 µM and 0.762 µM
same,TGI,786-0 renal,14.2 µM and 1.51 µM
O/N=C1\CCCCC1C(NO)c1ccccc1 (stereo not drawn),TGI,EKVX NSCLC,> 100 µM
same,TGI,SNB-75 CNS,> 100 µM
same,TGI,SNB-19 CNS,> 100 µM
same,TGI,HOP-62 NSCLC,> 100 µM
same,TGI,HCC-2998 colon,> 100 µM
same,TGI,OVCAR-5 ovarian,> 100 µM
same,TGI,SF-539 CNS,> 100 µM
same,TGI,786-0 renal,> 100 µM
